Assay results: ChEMBL document CHEMBL1687718, “Selection and characterization of hepatitis C virus replicons dually resistant to the polymerase and protease inhibitors HCV-796 and boceprevir (SCH 503034)” (Antimicrob Agents Chemother, 2009)

What was measured:
Hepatitis C virus [1] = experiment: Antiviral activity against Hepatitis C virus genotype 1b Con1 infected in human HuH7 cells assessed as GAPDH RNA or 18S rRNA level after 3 days selected with 40 nM HCV-796 and 800 nM boceprevir by qRT-PCR analysis relative to control; assay type: functional, organism-based, Hepacivirus hominis, Huh-7
Hepatitis C virus [2] = experiment: Antiviral activity against Hepatitis C virus genotype 1b Con1 infected in human HuH7 cells assessed as GAPDH RNA or 18S rRNA level after 3 days selected with 40 nM HCV-796 and 800 nM boceprevir by qRT-PCR analysis; assay type: functional, organism-based, Hepacivirus hominis; details: Con1, Huh-7, 72 h
Hepatitis C virus [3] = experiment: Antiviral activity against Hepatitis C virus genotype 1b Con1 infected in human HuH7 cells assessed as GAPDH RNA or 18S rRNA level after 3 days by qRT-PCR analysis; assay type: functional, organism-based, Hepacivirus hominis; details: Con1, Huh-7, 72 h
Hepatitis C virus [4] = experiment: Antiviral activity against Hepatitis C virus genotype 1b Con1 harboring NS5B C445F mutant infected in human HuH7.5 cells after 72 hrs by gaussia luciferase reporter assay relative to control; assay type: functional, Hepacivirus hominis, Huh-7
Hepatitis C virus [5] = experiment: Antiviral activity against Hepatitis C virus genotype 1b Con1 harboring NS3 G282S mutant infected in human HuH7.5 cells after 72 hrs by gaussia luciferase reporter assay relative to control; assay type: functional, Hepacivirus hominis, Huh-7
Hepatitis C virus [6] = experiment: Antiviral activity against Hepatitis C virus genotype 1b Con1 harboring NS5B C445F mutant infected in human HuH7.5 cells after 72 hrs by gaussia luciferase reporter assay; assay type: functional, organism-based, Hepacivirus hominis; details: Con1, Huh-7, 72 h
Hepatitis C virus [7] = experiment: Antiviral activity against Hepatitis C virus genotype 1b Con1 harboring NS3 K583T mutant infected in human HuH7.5 cells after 72 hrs by gaussia luciferase reporter assay; assay type: functional, organism-based, Hepacivirus hominis; details: Con1, Huh-7, 72 h
Hepatitis C virus [8] = experiment: Antiviral activity against Hepatitis C virus genotype 1b Con1 harboring NS5B C316Y mutant infected in human HuH7.5 cells after 72 hrs by gaussia luciferase reporter assay relative to control; assay type: functional, Hepacivirus hominis, Huh-7
Hepatitis C virus [9] = experiment: Antiviral activity against Hepatitis C virus genotype 1b Con1 harboring NS3 G282S mutant infected in human HuH7.5 cells after 72 hrs by gaussia luciferase reporter assay; assay type: functional, organism-based, Hepacivirus hominis; details: Con1, Huh-7, 72 h
Hepatitis C virus [10] = experiment: Antiviral activity against Hepatitis C virus genotype 1b Con1 harboring NS3 E176G mutant infected in human HuH7.5 cells after 72 hrs by gaussia luciferase reporter assay; assay type: functional, organism-based, Hepacivirus hominis; details: Con1, Huh-7, 72 h
Hepatitis C virus [11] = experiment: Antiviral activity against Hepatitis C virus genotype 1b Con1 harboring NS3 V170A mutant infected in human HuH7.5 cells after 72 hrs by gaussia luciferase reporter assay; assay type: functional, organism-based, Hepacivirus hominis; details: Con1, Huh-7, 72 h
Hepatitis C virus [12] = experiment: Antiviral activity against Hepatitis C virus genotype 1b Con1 harboring NS3 K583T mutant infected in human HuH7.5 cells after 72 hrs by gaussia luciferase reporter assay relative to control; assay type: functional, Hepacivirus hominis, Huh-7
Hepatitis C virus [13] = experiment: Antiviral activity against Hepatitis C virus genotype 1b Con1 harboring V170A and C316Y mutations mutant infected in human HuH7.5 cells after 72 hrs by gaussia luciferase reporter assay; assay type: functional, organism-based, Hepacivirus hominis; details: Con1, Huh-7, 72 h
Hepatitis C virus [14] = experiment: Antiviral activity against Hepatitis C virus genotype 1b Con1 infected in human HuH7 cells assessed as GAPDH RNA or 18S rRNA level after 3 days selected with […] and 400 nM boceprevir by qRT-PCR analysis relative to control; assay type: functional, Hepacivirus hominis, Huh-7
Hepatitis C virus [15] = experiment: Antiviral activity against Hepatitis C virus genotype 1b Con1 infected in human HuH7.5 cells after 72 hrs by gaussia luciferase reporter assay; assay type: functional, organism-based, Hepacivirus hominis; details: Con1, Huh-7, 72 h
Hepatitis C virus [16] = experiment: Antiviral activity against Hepatitis C virus genotype 1b Con1 harboring C316Y and C445F mutations mutant infected in human HuH7.5 cells after 72 hrs by gaussia luciferase reporter assay; assay type: functional, organism-based, Hepacivirus hominis; details: Con1, Huh-7, 72 h
Hepatitis C virus [17] = experiment: Antiviral activity against Hepatitis C virus genotype 1b Con1 harboring NS3 E176G mutant infected in human HuH7.5 cells after 72 hrs by gaussia luciferase reporter assay relative to control; assay type: functional, Hepacivirus hominis, Huh-7
Hepatitis C virus [18] = experiment: Antiviral activity against Hepatitis C virus genotype 1b Con1 harboring NS5B I424V mutant infected in human HuH7.5 cells after 72 hrs by gaussia luciferase reporter assay relative to control; assay type: functional, Hepacivirus hominis, Huh-7
Hepatitis C virus [19] = experiment: Antiviral activity against Hepatitis C virus genotype 1b Con1 infected in human HuH7 cells assessed as GAPDH RNA or 18S rRNA level after 3 days selected with […] and 400 nM boceprevir by qRT-PCR analysis; assay type: functional, organism-based, Hepacivirus hominis; details: Con1, Huh-7, 72 h
Hepatitis C virus [20] = experiment: Antiviral activity against Hepatitis C virus genotype 1b Con1 harboring C316Y and C445F mutations mutant infected in human HuH7.5 cells after 72 hrs by gaussia luciferase reporter assay relative to control; assay type: functional, Hepacivirus hominis, Huh-7
Hepatitis C virus [21] = experiment: Antiviral activity against Hepatitis C virus genotype 1b Con1 harboring NS3 V158M mutant infected in human HuH7.5 cells after 72 hrs by gaussia luciferase reporter assay relative to control; assay type: functional, Hepacivirus hominis, Huh-7
Hepatitis C virus [22] = experiment: Antiviral activity against Hepatitis C virus genotype 1b Con1 harboring NS5B C316Y mutant infected in human HuH7.5 cells after 72 hrs by gaussia luciferase reporter assay; assay type: functional, organism-based, Hepacivirus hominis; details: Con1, Huh-7, 72 h
Hepatitis C virus [23] = experiment: Antiviral activity against Hepatitis C virus genotype 1b Con1 harboring V170A and C316Y mutations mutant infected in human HuH7.5 cells after 72 hrs by gaussia luciferase reporter assay relative to control; assay type: functional, Hepacivirus hominis, Huh-7
Hepatitis C virus [24] = experiment: Antiviral activity against Hepatitis C virus genotype 1b Con1 harboring NS5B I424V mutant infected in human HuH7.5 cells after 72 hrs by gaussia luciferase reporter assay; assay type: functional, organism-based, Hepacivirus hominis; details: Con1, Huh-7, 72 h
Hepatitis C virus [25] = experiment: Antiviral activity against Hepatitis C virus genotype 1b Con1 harboring NS3 V158M mutant infected in human HuH7.5 cells after 72 hrs by gaussia luciferase reporter assay; assay type: functional, organism-based, Hepacivirus hominis; details: Con1, Huh-7, 72 h
Hepatitis C virus [26] = experiment: Antiviral activity against Hepatitis C virus genotype 1b Con1 harboring NS3 V170A mutant infected in human HuH7.5 cells after 72 hrs by gaussia luciferase reporter assay relative to control; assay type: functional, Hepacivirus hominis, Huh-7

`C[C@@]1(O)[C@H](O)[C@@H](CO)O[C@H]1n1ccc(N)nc1=O` was tested, and the “Ratio IC50” value (Hepatitis C virus [1]) was 1, the EC50 (Hepatitis C virus [2]) was 1620 nM and the EC50 (Hepatitis C virus [3]) was 1140 nM.

For `CC(C)(C)NC(=O)N[C@H](C(=O)N1C[C@H]2[C@@H]([C@H]1C(=O)NC(CC1CCC1)C(=O)C(N)=O)C2(C)C)C(C)(C)C` (some centres undefined) [BOCEPREVIR], the “Ratio IC50” value (Hepatitis C virus [4]) was 1, the “Ratio IC50” value (Hepatitis C virus [5]) was 3 and the “Ratio IC50” value (Hepatitis C virus [1]) was 10. For the same compound, the EC50 (Hepatitis C virus [6]) was 795 nM, the EC50 (Hepatitis C virus [7]) was 738 nM and the “Ratio IC50” value (Hepatitis C virus [8]) was 1. The EC50 (Hepatitis C virus [9]) was 1940 nM, the EC50 (Hepatitis C virus [10]) was 2150 nM and the EC50 (Hepatitis C virus [11]) was 3170 nM. For the same compound, the EC50 (Hepatitis C virus [2]) was 1580 nM, the “Ratio IC50” value (Hepatitis C virus [12]) was 1 and the EC50 (Hepatitis C virus [13]) was 4360 nM. The “Ratio IC50” value (Hepatitis C virus [14]) was 8, the EC50 (Hepatitis C virus [15]) was 608 nM and the EC50 (Hepatitis C virus [16]) was 0.821 µM. The “Ratio IC50” value (Hepatitis C virus [17]) was 4, the “Ratio IC50” value (Hepatitis C virus [18]) was 1 and the EC50 (Hepatitis C virus [19]) was 1330 nM. For the same compound, the “Ratio IC50” value (Hepatitis C virus [20]) was 1, the “Ratio IC50” value (Hepatitis C virus [21]) was 1 and the EC50 (Hepatitis C virus [22]) was 781 nM. For the same compound, the “Ratio IC50” value (Hepatitis C virus [23]) was 7, the EC50 (Hepatitis C virus [24]) was 647 nM and the EC50 (Hepatitis C virus [25]) was 377 nM. The EC50 (Hepatitis C virus [3]) was 165 nM and the “Ratio IC50” value (Hepatitis C virus [26]) was 5.

With `CNC(=O)c1c(-c2ccc(F)cc2)oc2cc(N(CCO)S(C)(=O)=O)c(C3CC3)cc12` [NESBUVIR] the “Ratio IC50” value (Hepatitis C virus [4]) was 8, the “Ratio IC50” value (Hepatitis C virus [5]) was 2 and the “Ratio IC50” value (Hepatitis C virus [1]) was 1403. The EC50 (Hepatitis C virus [6]) was 114 nM, the EC50 (Hepatitis C virus [7]) was 15 nM and the “Ratio IC50” value (Hepatitis C virus [8]) was 138. It also gave an EC50 (Hepatitis C virus [9]) of 22 nM, an EC50 (Hepatitis C virus [10]) of 38 nM and an EC50 (Hepatitis C virus [11]) of 13 nM. The EC50 (Hepatitis C virus [2]) was 3370 nM, the “Ratio IC50” value (Hepatitis C virus [12]) was 1 and the EC50 (Hepatitis C virus [13]) was 1340 nM. For the same compound, the “Ratio IC50” value (Hepatitis C virus [14]) was 1025, the EC50 (Hepatitis C virus [15]) was 14 nM and the EC50 (Hepatitis C virus [16]) was 25.7 µM. For the same compound, the “Ratio IC50” value (Hepatitis C virus [17]) was 3, the “Ratio IC50” value (Hepatitis C virus [18]) was 1 and the EC50 (Hepatitis C virus [19]) was 2460 nM. For the same compound, the “Ratio IC50” value (Hepatitis C virus [20]) was 1834, the “Ratio IC50” value (Hepatitis C virus [21]) was 1 and the EC50 (Hepatitis C virus [22]) was 1940 nM. The “Ratio IC50” value (Hepatitis C virus [23]) was 95, the EC50 (Hepatitis C virus [24]) was 13 nM and the EC50 (Hepatitis C virus [25]) was 9 nM. For the same compound, the EC50 (Hepatitis C virus [3]) was 2.4 nM and the “Ratio IC50” value (Hepatitis C virus [26]) was 1.

With `CC(=O)c1cc(F)c(Br)cc1NCC(=O)Nc1ccccc1C(=O)O` the EC50 (Hepatitis C virus [1]; Hepatitis C virus, Con1, Huh-7, 72 h) was > 30 nM, the EC50 (Hepatitis C virus [2]) was > 15000 nM and the EC50 (Hepatitis C virus [3]) was 499 nM.

For `COC1=C2C[C@@H](C)C[C@H](OC)[C@H](O)[C@@H](C)/C=C(\C)[C@H](OC(N)=O)[C@@H](OC)/C=C\C=C(/C)C(=O)NC(=CC1=O)C2=O` [GELDANAMYCIN], the “Ratio IC50” value (Hepatitis C virus [1]) was 5, the EC50 (Hepatitis C virus [2]) was 1.2 nM and the EC50 (Hepatitis C virus [3]) was 0.25 nM.

With `CCC[C@]1(CC(=O)O)OCCc2c1[nH]c1c(C)ccc(C#N)c21` the “Ratio IC50” value (Hepatitis C virus [1]) was 2 and the EC50 (Hepatitis C virus [2]) was 7840 nM.

In the case of `CO[C@H]1/C=C\C=C(/C)C(=O)NC2=CC(=O)C(NCCN(C)C)=C(C[C@@H](C)C[C@H](OC)[C@H](O)[C@@H](C)/C=C(\C)[C@@H]1OC(N)=O)C2=O` [ALVESPIMYCIN], the “Ratio IC50” value (Hepatitis C virus [1]) is reported as 3, the EC50 (Hepatitis C virus [2]) is reported as 3.1 nM and the EC50 (Hepatitis C virus [3]) is reported as 1.2 nM.

For `CC(=O)c1cc(F)c(Cl)cc1NCC(=O)Nc1ccccc1C(=O)O`, the “Ratio IC50” value (Hepatitis C virus [1]) was >15, the EC50 (Hepatitis C virus [2]) was > 20000 nM and the EC50 (Hepatitis C virus [3]) was 1310 nM.
